Assay results as given in article PMC5679651, “Complex antigen presentation pathway for an HLA-A*0201-restricted epitope from Chikungunya 6K protein” (PLoS Neglected Tropical Diseases, 2017).
Read-outs that look alike come from different tables or passages of the source. Square brackets hold non-standard residues; d marks the D form. Ends that are not written are not given here. Peptide text beside a SMILES is read from it. * marks the point of attachment. Sta = CC(C)C[C@H](N)[C@@H](O)CC(=O)O; Isovaleryl = CC(C)CC(=O)*

Key:
HLA-A*0201 [1] = target: HLA-A*0201 (Homo sapiens, UniProt P04439, /I218V/L300P/L318F/N151K/N90K/P208A/P217A/Q86G/Q94H/R138H/R169H/T345S); assay: biochemical; format: binding; settings: HLA-A*0201-transfected TAP-deficient RMA-S cells, peptide 2 h 26°C then 2 h 37°C, concentration range 0.001-100 μM, mAb PA2.1, flow cytometry, mean ± SD of four independent experiments, read-out: HLA-A*0201 Affinity values, EC50
[2] = system: CHIKV 6K51-59 epitope presentation by rVACV-CHIKV-infected HLA-A*0201+ DC; assay: cells; format: cell-based, HLA-A*0201-transgenic mice
[3] = system: VACV D12I251-259 epitope presentation by infected HLA-A*0201+ DC; format: cell-based, HLA-A*0201-transgenic mice; settings: for percentage of inhibition of recognition by VACV D12I251-259-specific CD8+ T cells: SD
HLA-A*0201 [4] = target: HLA-A*0201 (Homo sapiens, UniProt P04439, D140Y/D185E/D98H/E176V/E277Q/G131W/G231S/I119V/I121R/I166T/I218V/L300P/L318F/N151K/N90K/P208A/P217A/Q86G/Q94H/R138H/R169H/T345S); assay: biochemical; format: binding; settings: HLA-A*0201-transfected TAP-deficient RMA-S cells; for binding to HLA-A*0201 (HLA-peptide surface complexes), in words: MHC-peptide complex stability assay
[5] = system: CHIKV 6K peptide-specific CD8+ T cell lines; format: cell-based, HLA-A*0201-transgenic mice; settings: ICS
[6] = Mus musculus, T-cell, 5 h, read-out: percentage of inhibition of recognition by CHIKV 6K51-59-specific CD8+ T cells, SD

| Molecule | EC50 (HLA-A*0201 [1]; SD) | effect on recognition by CHIKV 6K51-59-specific CD8+ T cell line, in words [2] | further results |
| --- | --- | --- | --- |
| CC(C)C[C@H](NC(=O)[C@H](CC(C)C)NC(=O)[C@H](CCCNC(=N)N)NC(=O)[C@H](CC(C)C)NC(=O)[C@H](CS)NC(=O)[C@H](CC(N)=O)NC(=O)[C@H](CS)NC(=O)[C@H](CC(C)C)NC(=O)[C@@H](N)C(C)C)C(=O)O [6K 31–39] (H-VLCNCLRLL-OH) | 5 ± 3 µM | – | – |
| CC(C)C[C@H](NC(=O)[C@@H](NC(=O)[C@H](CCCCN)NC(=O)[C@H](CS)NC(=O)[C@H](CS)NC(=O)[C@H](CS)NC(=O)[C@@H]1CCCN1C(=O)[C@H](CC(C)C)NC(=O)[C@H](CC(C)C)NC(=O)[C@@H](N)CCCNC(=N)N)[C@@H](C)O)C(=O)O [6K 37–46] (H-RLLPCCCKTL-OH) | 8 ± 6 µM | – | – |
| CC(C)C[C@H](NC(=O)[C@@H](O)[C@H](N)Cc1ccccc1)C(=O)O [BEST, Bestatin] | – | unaffected | – |
| C[C@H]1CCC/C=C/[C@@H]2C[C@H](O)C[C@H]2[C@H](O)/C=C/C(=O)O1 [BFA, Brefeldin] | – | completely inhibited | effect on VACV D12I251-259 epitope presentation, in words [3]: complete inhibition |
| CCN(CC)CCCC(C)Nc1ccnc2cc(Cl)ccc12 (stereo not drawn) [CQ, Chloroquine] | – | – | inhibition at 50 µM [2, 6]: 69 ± 19% |
| CC(C)C[C@H](NC(=O)[C@H]1O[C@@H]1C(=O)O)C(=O)NCCCCN=C(N)N [E64] | – | None of these inhibitors affected | – |
| O=C(O)CN(CCN(CC(=O)O)CC(=O)O)CC(=O)O [EDTA, Ethylenediaminetetraacetic acid] | – | unaffected | – |
| CC(=O)N[C@@H](CSC(=O)[C@]1([C@@H](O)C(C)C)NC(=O)[C@H](C)[C@@H]1O)C(=O)O [LC, Lactacystin] | – | – | inhibition at 10 µM [2, 6]: 83 ± 3%; effect on VACV D12I251-259 epitope presentation, in words [3]: lesser effect |
| CC(=O)N[C@@H](CC(C)C)C(=O)N[C@@H](CC(C)C)C(=O)N[C@H](C=O)CCCNC(=N)N [LEU, Leupeptin] | – | None of these inhibitors affected | – |
| CC(C)C[C@H](N)CS [Leu-SH, Leucinthiol] | – | – | percentage of inhibition of recognition by CHIKV 6K51-59-specific CD8+ T cells ([2]; SD): 91 ± 13%; effect on VACV D12I251-259 epitope presentation, in words [3]: lesser effect |
| CC(C)CC(=O)N[C@H](C(=O)N[C@H](C(=O)N[C@@H](CC(C)C)[C@@H](O)CC(=O)N[C@@H](C)C(=O)N[C@@H](CC(C)C)[C@@H](O)CC(=O)O)C(C)C)C(C)C [PEPST, Pepstatin] (Isovaleryl-VV[Sta]A[Sta]-OH) | – | None of these inhibitors affected | – |
| c1cnc2c(c1)ccc1cccnc12 [PHE, 1–10 Phenanthroline] | – | None of these inhibitors affected | – |
| O=S(=O)(F)Cc1ccccc1 [PMSF, Phenylmethane sulfonylfluoride] | – | None of these inhibitors affected | – |
| COc1ccc(C[C@H](N)C(=O)N[C@H]2[C@@H](O)[C@H](n3cnc4c(N(C)C)ncnc43)O[C@@H]2CO)cc1 [PURO, Puromycin] | – | – | inhibition at 0.5 µg/mL [2, 6]: 47 ± 21%; percentage of inhibition of recognition by VACV D12I251-259-specific CD8+ T cells [3]: 4 ± 6% |
| ALIPLAALI [6K 22–30] | 33 ± 28 µM | – | – |
| ALIPLAALIV [6K 22–31] | 21 ± 20 µM | – | – |
| ALIVLCNCL [6K 28–36] | – | – | binding to HLA-A*0201 (HLA-peptide surface complexes), in words (HLA-A*0201 [4]): not detected; HLA-A*0201 Affinity values, EC50 (HLA-A*0201 [4]; peptide 2 h 26°C then 2 h 37°C, concentration range 0.001-100 μM, mAb PA2.1, flow cytometry, mean ± SD of four independent experiments): No binding |
| Decanoyl-Arg-Val-Lys-Arg-chloromethylketone [dec-RVKR] | – | – | percentage of inhibition of recognition by CHIKV 6K51-59-specific CD8+ T cells ([2]; SD): 43 ± 20%; percentage of inhibition of recognition by VACV D12I251-259-specific CD8+ T cells [3]: 4 ± 6% |
| ILDRIITNA [A10L 688-696] | 3 ± 3 µM | – | – |
| QALIPLAAL [6K 21–29] | – | – | EC50 (HLA-A*0201 [1]): > 200 µM; binding to HLA-A*0201 (HLA-peptide surface complexes), in words (HLA-A*0201 [4]): residual; specific recognition of peptide-pulsed DC by CTL line, in words [5]: no specific recognition |
| TLAFLAVMSV [6K 45–54] | 1 ± 0.5 µM | – | – |
| VMSVGAHTV [6K 51–59] | 9 ± 1 µM | – | – |
